Results: patent EP0642790A2, “Alkali citrates and their use as medicaments, especially against arterosclerosis” (MADAUS AG, priority 1993, dated 1995)
Read-outs that look alike come from different tables or passages of the source.

Tests used:
[1] = parameters: species or system Ratten (Sprague-Dawley-Ratten); settings: rat, in vivo
Excerpt: (§1) Pentobarbital betäubten Ratten (Sprague-Dawley-Ratten) wurde die Aorta aseptisch entnommen, in acht 5 mm große Segmente geschnitten und in sterile Diffusionskammern (Fa. Millipore GmbH, Eschborn), mit einem Durchmesser von 14 mm und einer Porengröße von 0,22 µm fixiert. Jeweils 2 Kammern wurden in die Bauchhöhle einer Ratte implantiert. Die Versuchsgruppen bestanden aus mindestens 7 Ratten.
(§2) Jedem Versuchstier wurden pro Tag 2,1 mmol Citrat oral in zwei gleichen Dosen appliziert, nach 22 Tagen die beiden Diffusionskammern entnommen und die Aorta-Abschnitte licht-, elektronenmikroskopisch, röntgenspektrographisch sowie elementar-analytisch untersucht. Zur histologischen Untersuchung wurden die Gewebeabschnitte in 8% Formalin fixiert, die Aortaabschnitte für die lichtmikroskopischen Untersuchung nach Kossa mit Hämatoxylin und Eosin gefärbt sowie diejenigen zur elektronenmikroskopischen Untersuchung in 2,5% Glutaraldehyd und anschließend in 1% Osmiumtetroxyd fixiert. Die Bestimmung der maximalen Ablagerungsschichtdicke erfolgte mittels Okularmikrometer und die Flächenausdehnung der Ablagerungsschicht der jeweiligen Aortasegmente wurden nach bekannten Methoden ermittelt.
Der Umstand, daß Alkalicitrate ohne Nebenwirkungen im Gegensatz zu bekannten o.g. Medikamente auf die Nierentätigkeit ist, ergibt sich auch aus der Bestimmung der Urinzusammensetzung [Tabelle (2B)). Die Konzentrationen von beispielsweise cAMP unterschieden sich nur unwesentlich von denen der Kontrolle.

Aortasegmenten = assay: Mineral content and calcium/phosphorus quotient in the implanted aorta segments; type: in vivo, Ratten (Sprague-Dawley-Ratten); settings: for Calcium, Konzentration in Aortasegmenten: mean (range of measured values), Kontrolle 4,77; for Phosphor, Konzentration in Aortasegmenten / Magnesium, Konzentration in Aortasegmenten: mean (range); for Phosphor, Konzentration in Aortasegmenten: Kontrolle 4,47; for Magnesium, Konzentration in Aortasegmenten: Kontrolle 0,20
Excerpt: as §1, §2

[2] = parameters: species or system Ratten (Sprague-Dawley-Ratten); settings: rat, in vivo; remark: listed apart in the source
Excerpt: as §1, §2
Das bedeutet, daß die Verstoffwechslung erhöhter Gaben von KNC, KC oder NC im Organismus nicht zu einer Veränderung der Serumzusammensetzung führt und daß daher die Nierenfiltration aufgrund der im Normbereich befindlichen Fraktionen der ultrafiltrierbaren und ionablen Fraktion des Serums nicht beeinträchtigt wird.
Um die Wirkung der Applikationen von KNC, NC und KC auf den Hormonhaushalt zu überprüfen, wurde die Konzentration von PTH im Blut analysiert.

[3] = system: Ablagerungen in Aortasegmenten; assay: Calcification (deposit formation) of rat aorta segments in diffusion chambers implanted into the abdominal cavity of rats; histology and morphometry; type: in vivo, Ratten (Sprague-Dawley-Ratten); settings: for Dicke (Ablagerungsschichtdicke): 2,1 mmol Citrat per day orally in two doses, maximal deposit layer thickness by ocular micrometer, Kontrolle 55; for Dicke (Ablagerungsschichtdicke) / Minimierung der Flächenausdehnung der Ablagerungen im Vergleich zur Kontrolle / Fläche (Flächenausdehnung der Ablagerungen): 22 days; for Minimierung der Flächenausdehnung der Ablagerungen im Vergleich zur Kontrolle / Fläche (Flächenausdehnung der Ablagerungen): 2,1 mmol Citrat per day orally; for Fläche (Flächenausdehnung der Ablagerungen): Kontrolle 240; for histologisch-lichtmikroskopische Untersuchung der Querschnitte der Aortaabschnitte: Kontrolle: pronounced deposit formation; for Abnahme der Ablagerungsschichtdicke im Vergleich zu der Kontrolle (Faktor): factor versus Kontrolle (55 µm); for relative Volumina %: relative to Kontrolle = 100; for relative Volumina: thickness multiplied by area, Kontrolle 13200
Excerpt: as §1
Folgende wäßrige Citrat-Lösungen wurden oral appliziert:
as §2

Substance	Citrat [1]	Magnesium [1]	cAMP [1]	Calcium, Konzentration in Aortasegmenten (Aortasegmenten)	Phosphor, Konzentration in Aortasegmenten (Aortasegmenten)	Calcium [2]	Calcium/ Protein [2]	Citrat [2]	Ges.CO2 [2]	Ges.Protein [2]	Kreatinin [2]	PTH [2]	arteriell-venöse pH-Wert, Konzentrationen an Gesamt-CO₂, Citrat, Magnesium und Phosphor im Blut [2]	pH [2]	Dicke (Ablagerungsschichtdicke) [3]	Minimierung der Flächenausdehnung der Ablagerungen im Vergleich zur Kontrolle [3]	Fläche (Flächenausdehnung der Ablagerungen) [3]	histologisch-lichtmikroskopische Untersuchung der Querschnitte der Aortaabschnitte [3]	relative Volumina % [3]	relative Volumina [3]	other results
K₆Na₆H₃(C₆H₅O₇)₅ x 2 H₂O [KNC]	20,0 (13,2-30,3)^1 µmol/g	3,7 (1,4-8,0)^3 µmol/mg	11,6 (9,0-15,9) nmol/mg	4,93 (3,40-7,16) mmol/g	6,80 (2,09-10,51)^1 mmol/g	2,27 (2,22-2,33)^1 mmol/l	45 (40-47) µmol/g	164 (55-244) µmol/l	40,9 (36,9-45,1) mmol/g	50,7 (47,5-57,0)^2 g/l	30,9 (15,9-35,4)^2 µmol/l	200-553	nicht verändert	7,39 (7,34-7,43)	23 µm	54%	131	gleichmäßig gestaltete (ohne besondere Erhebungen), stark verringerte Plaqueschicht	23%	3013	Magnesium in Aortasegmenten, Vergleich der Gruppen (Aortasegmenten; in words): höchsten Magnesiumanstieg; PTH-Level im Blut, Unterschied zur Kontrolle [2]: keine Unterschiede; Abnahme der Ablagerungsschichtdicke im Vergleich zu der Kontrolle (Faktor) [3]: 2,4; Ablagerungsdicke im Gegensatz zur Kontrolle ([3]; thickness as percent of Kontrolle): < 55%
Na₃C₆H₅O₇ x 2 H₂O [NC]	19,7 (15,8-30,4)^2 µmol/g	4,0 (2,6-8,0)^3 µmol/mg	13,5 (12,1-14,2) nmol/mg	4,20 (2,61-10,90) mmol/g	6,35 (3,34-14,60) mmol/g	2,20 (2,04-2,30)^3 mmol/l	46 (42-50) µmol/g	171 (140-212) µmol/l	40,9 (29,6-51,8) mmol/g	48,3 (44,8-55,3)^2 g/l	31,8 (30,1-33,6)^1 µmol/l	200-415	nicht verändert	7,43 (7,35-7,49)			159	gleichmäßig verteilte ohne besondere Erhebungen gestaltete Ablagerungsschicht	31%	4134	Magnesium, Konzentration in Aortasegmenten (Aortasegmenten): 0,28 (0,20-0,33)^1 mmol/g; Abnahme der Ablagerungsschichtdicke im Vergleich zu der Kontrolle (Faktor) [3]: > 2
K₃C₆H₅O₇ x 1 H₂O [KC]	22,0 (11,3-25,0)^2 µmol/g	3,4 (1,8-9,1)^3 µmol/mg	12,9 (9,9-16,0) nmol/mg	5,09 (3,15-10,81) mmol/g	7,66 (2,97-17,74) mmol/g	2,27 (2,20-2,43)^1 mmol/l	44 (42-46) µmol/g	163 (96-248) µmol/l	45,0 (39,2-50,8) mmol/g	51,0 (48,3-53,3)^2 g/l	31,8 (25,6-39,8) µmol/l	200-468	nicht verändert	7,39 (7,31-7,45)	33 µm	41%	98	gleichmäßig verteilte ohne besondere Erhebungen gestaltete Ablagerungsschicht	25%	3234	Magnesium, Konzentration in Aortasegmenten (Aortasegmenten): 0,28 (0,20-0,43)^2 mmol/g
